In patent publication US8697739B2, “Bicyclic acetyl-CoA carboxylase inhibitors and uses thereof” (Novartis AG, priority 2010, dated 2014):

target: T1, human acetyl-CoA carboxylase 2 (ACC2) (Homo sapiens, UniProt O00763); test: Acetyl-CoA carboxylase enzyme assay (malonyl-CoA formation by LC/MS/MS); assay type: biochemical; conditions: recombinant human ACC2 (aa 144-2458); read-out: IC50 ACC2
T1 construct: The cDNA encoding amino acids 144 to 2458 of human acetyl-CoA carboxylase 2; made in house; host or cells: Sf9 insect cells (baculovirus, pFastBac1)
T1 sequence (O00763 144-2458): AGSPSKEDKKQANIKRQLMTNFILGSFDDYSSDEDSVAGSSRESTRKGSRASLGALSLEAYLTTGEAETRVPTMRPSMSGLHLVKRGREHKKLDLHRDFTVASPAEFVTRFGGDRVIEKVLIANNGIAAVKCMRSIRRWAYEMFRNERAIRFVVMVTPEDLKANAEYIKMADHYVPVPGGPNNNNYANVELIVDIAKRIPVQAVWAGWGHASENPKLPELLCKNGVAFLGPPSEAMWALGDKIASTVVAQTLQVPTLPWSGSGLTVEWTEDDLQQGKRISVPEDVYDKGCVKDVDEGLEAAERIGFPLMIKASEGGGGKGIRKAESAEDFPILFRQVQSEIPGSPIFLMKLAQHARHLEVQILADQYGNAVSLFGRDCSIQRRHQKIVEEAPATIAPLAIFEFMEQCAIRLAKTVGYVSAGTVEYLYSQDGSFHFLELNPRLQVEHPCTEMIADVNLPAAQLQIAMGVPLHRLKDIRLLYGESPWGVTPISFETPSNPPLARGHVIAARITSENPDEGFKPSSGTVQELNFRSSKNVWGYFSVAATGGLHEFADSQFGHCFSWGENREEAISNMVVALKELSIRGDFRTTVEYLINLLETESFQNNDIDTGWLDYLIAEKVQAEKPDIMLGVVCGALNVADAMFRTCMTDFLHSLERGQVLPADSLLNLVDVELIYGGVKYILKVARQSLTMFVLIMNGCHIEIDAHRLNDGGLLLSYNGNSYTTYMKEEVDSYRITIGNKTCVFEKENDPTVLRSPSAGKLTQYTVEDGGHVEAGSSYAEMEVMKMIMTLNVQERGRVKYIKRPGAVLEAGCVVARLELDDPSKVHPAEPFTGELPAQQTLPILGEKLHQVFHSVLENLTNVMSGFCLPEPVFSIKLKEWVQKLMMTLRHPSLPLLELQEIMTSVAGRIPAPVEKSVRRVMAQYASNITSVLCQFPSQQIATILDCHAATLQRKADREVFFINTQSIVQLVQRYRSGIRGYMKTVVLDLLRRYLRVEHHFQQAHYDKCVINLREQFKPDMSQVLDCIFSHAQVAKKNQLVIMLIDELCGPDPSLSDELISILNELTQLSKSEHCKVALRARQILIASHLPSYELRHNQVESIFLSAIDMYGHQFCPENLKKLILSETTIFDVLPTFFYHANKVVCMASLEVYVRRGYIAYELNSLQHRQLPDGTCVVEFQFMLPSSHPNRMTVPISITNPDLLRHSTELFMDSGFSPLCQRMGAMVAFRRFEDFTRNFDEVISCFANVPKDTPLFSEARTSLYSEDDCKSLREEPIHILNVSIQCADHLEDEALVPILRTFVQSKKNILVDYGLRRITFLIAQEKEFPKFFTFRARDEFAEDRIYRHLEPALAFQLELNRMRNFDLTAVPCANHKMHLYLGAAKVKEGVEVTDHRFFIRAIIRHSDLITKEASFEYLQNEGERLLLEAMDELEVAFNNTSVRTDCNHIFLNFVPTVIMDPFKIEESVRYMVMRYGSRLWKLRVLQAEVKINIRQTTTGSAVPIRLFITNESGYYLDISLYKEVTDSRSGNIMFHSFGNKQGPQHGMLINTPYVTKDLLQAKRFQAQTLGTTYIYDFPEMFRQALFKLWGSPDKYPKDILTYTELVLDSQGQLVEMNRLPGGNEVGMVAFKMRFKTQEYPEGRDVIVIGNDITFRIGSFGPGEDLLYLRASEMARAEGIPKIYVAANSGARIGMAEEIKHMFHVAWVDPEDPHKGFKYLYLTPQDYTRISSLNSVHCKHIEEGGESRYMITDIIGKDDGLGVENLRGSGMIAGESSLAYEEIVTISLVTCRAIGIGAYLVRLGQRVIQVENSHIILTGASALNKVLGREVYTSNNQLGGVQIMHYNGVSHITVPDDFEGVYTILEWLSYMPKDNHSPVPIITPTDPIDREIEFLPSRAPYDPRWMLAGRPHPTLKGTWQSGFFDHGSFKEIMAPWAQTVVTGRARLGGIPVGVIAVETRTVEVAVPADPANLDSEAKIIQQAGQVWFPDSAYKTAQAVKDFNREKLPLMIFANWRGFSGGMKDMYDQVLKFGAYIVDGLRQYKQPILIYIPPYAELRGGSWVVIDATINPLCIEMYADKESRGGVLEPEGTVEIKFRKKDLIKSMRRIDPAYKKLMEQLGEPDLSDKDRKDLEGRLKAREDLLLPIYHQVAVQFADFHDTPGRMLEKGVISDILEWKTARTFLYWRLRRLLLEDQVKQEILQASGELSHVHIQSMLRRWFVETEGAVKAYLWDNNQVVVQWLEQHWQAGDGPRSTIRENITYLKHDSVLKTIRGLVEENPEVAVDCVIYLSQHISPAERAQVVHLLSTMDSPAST
Outline: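 Malonyl-CoA formation was read by LC/MS/MS MRM against a [13C3]-malonyl-CoA internal standard, after acetic acid quench. The enzyme was baculovirus/Sf9-expressed human ACC2 residues 144–2458, given 15 minutes room-temperature compound preincubation in HEPES pH 7.5 buffer with MgCl2, citrate and DTT. Substrate solution held 50 μM acetyl-CoA, 120 μM ATP and 2 mM KHCO3.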

| IC50 [nM] | SMILES |
| --- | --- |
| < 10 | Cn1c(-c2ccccc2)cc2cc(S(=O)(=O)N[C@H]3CC[C@H](C(=O)N4CC(C(=O)O)CCC4c4ccccc4)CC3)ccc21 (stereo partly shown) [Example 92, 1-((1r,4r)-4-(1-methyl-2-phenyl-1H-indole-5-sulfonamido)cyclohexanecarbonyl)-6-phenylpiperidine-3-carboxylic acid] |
| 612 | COc1cc(Nc2nc3cc(S(=O)(=O)Nc4ccc(C(=O)OC(C)C)cc4)ccc3[nH]2)cc(OC)c1 [Example 530, isopropyl 4-(2-(3,5-dimethoxyphenylamino)-1H-benzo[d]imidazole-5-sulfonamido)benzoate] |
| 870 | CC(C)(C)c1nnc([C@H]2CC[C@H](NS(=O)(=O)c3ccc4[nH]c(-c5ccc(C(=O)O)cc5)nc4c3)CC2)o1 [Example 656, 4-(5-(N-((1r,4r)-4-(5-tert-butyl-1,3,4-oxadiazol-2-yl)cyclohexyl)sulfamoyl)-1H-benzo[d]imidazol-2-yl)benzoic acid] |
| 35 | O=C([C@H]1CC[C@H](NS(=O)(=O)c2ccc3c(c2)CCC3)CC1)N1CCNC[C@@H]1c1ccccc1 [Example 245, N-((1S,4r)-4-((S)-2-phenylpiperazine-1-carbonyl)cyclohexyl)-2,3-dihydro-1H-indene-5-sulfonamide] |
| 575 | CC(C)OC(=O)c1ccc(NS(=O)(=O)c2ccc3[nH]c(Nc4ccc(F)c(Cl)c4)nc3c2)cc1 [Example 542, isopropyl 4-(2-(3-chloro-4-fluorophenylamino)-1H-benzo[d]imidazole-5-sulfonamido)benzoate] |
| < 10 | Cc1c(-c2ccc(CCC(=O)O)cc2)n(C)c2cc(S(=O)(=O)N[C@H]3CC[C@H](C(=O)N4CCOC[C@@H]4C4CC4)CC3)ccc12 [Example 484, 3-(4-(6-(N-((1S,4r)-4-((S)-3-cyclopropylmorpholine-4-carbonyl)cyclohexyl)sulfamoyl)-1,3-dimethyl-1H-indol-2-yl)phenyl)propanoic acid] |
| 375 | Cc1cc2c(cc1S(=O)(=O)N[C@H]1CC[C@H](C(=O)N[C@H](C)c3ccc(F)cc3)CC1)NCCC2 [Example 188, (1r,4R)-N-((R)-1-(4-fluorophenyl)ethyl)-4-(6-methyl-1,2,3,4-tetrahydroquinoline-7-sulfonamido)cyclohexanecarboxamide] |
| 95 | CCOc1ccc2cc(S(=O)(=O)N[C@H]3CC[C@H](C(=O)N4CCN(C(=O)OC(C)(C)C)C[C@@H]4C(=O)OC)CC3)ccc2n1 [Example 235, (R)-1-tert-butyl 3-methyl 4-((1r,4R)-4-(2-ethoxyquinoline-6-sulfonamido)cyclohexanecarbonyl)piperazine-1,3-dicarboxylate] |
| > 35000 | C[C@@H](NC(=O)[C@H]1CC[C@H](NS(=O)(=O)c2ccc3nc(OCC(F)(F)F)ccc3c2)CC1)c1ccc(F)cc1 [Example 50, (1r,4R)-N-((R)-1-(4-fluorophenyl)ethyl)-4-(2-(2,2,2-trifluoroethoxy)quinoline-6-sulfonamido)cyclohexanecarboxamide] |
| 65 | C[C@@H](NC(=O)[C@H]1CC[C@H](NS(=O)(=O)c2ccc3nc(N4CCNCC4)ccc3c2)CC1)c1ccc(F)cc1 [Example 238, (1r,4R)-N-((R)-1-(4-fluorophenyl)ethyl)-4-(2-(piperazin-1-yl)quinoline-6-sulfonamido)cyclohexanecarboxamide] |
| 180 | CCOc1ccc2cc(S(=O)(=O)N[C@H]3CC[C@H](C(=O)N[C@H](CC(=O)OC(C)(C)C)c4ccccc4)CC3)ccc2n1 [Example 211, (R)-tert-butyl 3-((1r,4R)-4-(2-ethoxyquinoline-6-sulfonamido)cyclohexanecarboxamido)-3-phenylpropanoate] |
| 20 | CCOC(=O)N1CCNc2ncc(S(=O)(=O)N[C@H]3CC[C@H](C(=O)N[C@H](C)c4ccc(F)cc4)CC3)cc21 [Example 209, ethyl 7-(N-((1R,4r)-4-((R)-1-(4-fluorophenyl)ethylcarbamoyl)cyclohexyl)sulfamoyl)-3,4-dihydropyrido[3,2-b]pyrazine-1(2H)-carboxylate] |
| < 10 | Cc1cc(CO)ccc1-c1cc2ccc(S(=O)(=O)N[C@H]3CC[C@H](C(=O)N[C@H](C)c4ccc(F)cc4)CC3)cc2[nH]1 [Example 302, (1r,4R)-N-((R)-1-(4-fluorophenyl)ethyl)-4-(2-(4-(hydroxymethyl)-2-methylphenyl)-1H-indole-6-sulfonamido)cyclohexanecarboxamide] |
| 20 | Cc1cc(-c2ccc3cc(S(=O)(=O)N[C@H]4CC[C@H](C(=O)NC(c5ccccc5)C(C)(C)O)CC4)ccc3n2)cc(C)n1 (stereo partly shown) [Example 253, (1r,4r)-4-(2-(2,6-dimethylpyridin-4-yl)quinoline-6-sulfonamido)-N-(2-hydroxy-2-methyl-1-phenylpropyl)cyclohexanecarboxamide] |
| 75 | Cn1c(C2CC2)c(Cl)c2ccc(S(=O)(=O)N[C@H]3CC[C@H](C(=O)N4CCN[C@@H](C(F)(F)F)C4)CC3)cc21 [Example 362, 3-chloro-2-cyclopropyl-1-methyl-N-((1R,4r)-4-((R)-3-(trifluoromethyl)piperazine-1-carbonyl)cyclohexyl)-1H-indole-6-sulfonamide] |
| 2290 | CC(C)OC(=O)c1ccc(NS(=O)(=O)c2ccc3nc(-c4ccc(C(C)(C)C)cc4)[nH]c3c2)cc1 [Example 512, isopropyl 4-(2-(4-tert-butylphenyl)-1H-benzo[d]imidazole-6-sulfonamido)benzoate] |
| 71700 | Cc1nc2ccc(S(=O)(=O)N[C@H]3CC[C@H](C(=O)N4CCOCC4)CC3)cc2s1 [Example 658, 2-methyl-N-((1r,4r)-4-(morpholine-4-carbonyl)cyclohexyl)benzo[d]thiazole-6-sulfonamide] |
| 2880 | CC(C)(C)c1nnc(-c2ccc(NS(=O)(=O)c3ccc4nc(-c5ccccc5)[nH]c4c3)cc2)o1 [Example 513, N-(4-(5-tert-butyl-1,3,4-oxadiazol-2-yl)phenyl)-2-phenyl-1H-benzo[d]imidazole-6-sulfonamide] |
| 351 | COc1ccc(CNCc2ccc(-c3nc4cc(S(=O)(=O)Nc5ccc(C(=O)OC(C)C)cc5)ccc4[nH]3)cc2)cc1OC [Example 563, isopropyl 4-(2-(4-((3,4-dimethoxybenzylamino)methyl)phenyl)-1H-benzo[d]imidazole-5-sulfonamido)benzoate] |
| 109 | CC(C)OC(=O)c1ccc(NS(=O)(=O)c2ccc3[nH]c(Nc4ccc(N5CCOCC5)cc4)nc3c2)cc1 [Example 532, isopropyl 4-(2-(4-morpholinophenylamino)-1H-benzo[d]imidazole-5-sulfonamido)benzoate] |
| 18 | COC(=O)c1ccc(-c2nc3cc(S(=O)(=O)N[C@H]4CC[C@H](C(=O)N[C@H](C)c5ccccc5)CC4)ccc3[nH]2)cc1 [Example 275, methyl 4-(5-(N-((1R,4r)-4-((R)-1-phenylethylcarbamoyl)cyclohexyl)sulfamoyl)-1H-benzo[d]imidazol-2-yl)benzoate] |
| 6350 | CC(C)(C)c1nnc([C@H]2CC[C@H](NS(=O)(=O)c3ccc4[nH]c(C5CC5)nc4c3)CC2)o1 [Example 651, N-((1r,4r)-4-(5-tert-butyl-1,3,4-oxadiazol-2-yl)cyclohexyl)-2-cyclopropyl-1H-benzo[d]imidazole-5-sulfonamide] |
